Where “and” joins values, the source holds several entries; their conditions need not be identical. Equal entries are not always repeated. Where two headings read alike, the source gives them in different places.
Assays:
[1] = biological target: T1, Mtb's PDH (Mycobacterium tuberculosis, UniProt P9WIS7); assay: PDH assay with Lpd, DlaT and AceE (NADH formation at 340 nm); format: biochemical; conditions: preincubation at room temperature, remaining activity over time; FIG. 4
T1 sequence (P9WIS7 1-553): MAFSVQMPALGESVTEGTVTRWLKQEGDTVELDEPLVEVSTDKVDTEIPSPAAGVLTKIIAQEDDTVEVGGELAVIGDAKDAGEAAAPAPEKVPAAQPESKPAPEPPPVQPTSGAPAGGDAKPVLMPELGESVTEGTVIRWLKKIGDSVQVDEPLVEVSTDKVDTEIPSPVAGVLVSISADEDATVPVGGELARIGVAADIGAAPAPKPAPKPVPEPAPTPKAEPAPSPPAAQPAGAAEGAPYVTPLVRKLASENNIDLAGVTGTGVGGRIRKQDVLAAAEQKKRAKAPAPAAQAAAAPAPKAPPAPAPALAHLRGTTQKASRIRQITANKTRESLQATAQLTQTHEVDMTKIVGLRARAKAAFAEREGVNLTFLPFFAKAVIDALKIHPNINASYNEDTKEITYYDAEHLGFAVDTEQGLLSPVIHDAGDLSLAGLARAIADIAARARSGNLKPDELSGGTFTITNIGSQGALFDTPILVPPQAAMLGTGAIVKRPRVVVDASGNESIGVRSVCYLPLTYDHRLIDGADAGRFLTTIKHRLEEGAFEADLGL
Method: Reaction mixtures containing 200 nM Lpd, 350 nM DlaT, 200 nM AceE with or without 1 mM NAD+, 1 mM pyruvate, […] and […] D155931 were preincubated at room temperature and […] tested for remaining activity over time by PDH assay.

[2] = test system: Staphylococcus aureus; assay: MIC determination (A600 after 24 hours); conditions: for MIC: Staphylococcus aureus, 10^4-10^5 CFU/mL inoculum
Method: (§1) Bacteria were grown to mid-logarithmic phase, diluted to A600=0.1 and inoculated in 200 μl in 96-well plates in the presence of serial dilutions of compounds or vehicle control (DMSO). MICs (minimal concentrations that prevented bacterial growth) were determined at A600 after 24 hours incubation at 37° C.

[3] = test system: PDH complex from porcine heart; assay: PDH assay with porcine heart PDH complex; conditions: increasing concentrations up the limit of its solubility; FIG. 5
[4] = test system: bacteria and yeast; conditions: 10^4-10^5 CFU/mL inoculum
Method: as §1

[5] = biological target: T2, dihydrolipoamide acyltransferase (DlaT) (Mycobacterium tuberculosis, UniProt P9WIS7); assay: DlaT inhibition (Dlat IC50); DTNB peroxidase assay with Lpd, DlaT and AhpD; format: biochemical
T2 sequence (P9WIS7 1-553): T1 sequence (P9WIS7 1-553)

[6] = test system: Mycobacterium bovis var. Bacille Calmette Guerin (BCG); format: cell-based; conditions: pH 5.5 or pH 4.5, plus or minus NaNO2, 4 days, CFU; FIGS. 6 and 7
[7] = test system: Mycobacterium tuberculosis; assay: Killing of M. tuberculosis at acidic pH plus or minus nitrite (CFU counts); conditions: pH 5.5 or pH 4.5, plus or minus NaNO2, 4 days, FIG. 8
Description: In vitro, RNI can be generated under physiologically relevant conditions by provision of nitrite at a mildly acidified pH. During infection, Mtb resides chiefly in the phagosome of macrophages, where the pH is ˜6 in immunologically non-activated cells and can fall to ˜4.5 in those that have been activated by interferon-γ. Activated macrophages produce RNI, the most abundant of which is the accumulating autoxidation product of NO, nitrite (NO2^−). In the present assay, the intraphagosomal milieu of moderately activated macrophages was partially mimicked by culturing mycobacteria at pH 5.5 with nitrite. […] At pH 5.5, 0.5 mM nitrite generates an amount of NO no greater than that released by 3×10^5 activated macrophages in 0.5 mL in 24 hours. In the present assay pH 5.5, with or without 0.5 mM nitrite, was used.
M. tuberculosis was grown in 7H9+0.2% glycerol+0.05% Tween-80+10% ADN, pH 6.6. CFU were enumerated on 7H11 agar plates with 10% OADC enrichment. Mid-log cultures (A580 0.8-1.0) were prepared as single cell suspensions in 7H9 at pH 5.5 or pH 4.5 and diluted to 0.1 (A580). Inoculum was determined by CFU. Bacteria were incubated with compounds plus or minus 0.5 mM NaNO2 (pH 5.5) or 0.05 NaNO2 (pH 4.5) in 96 well plates in 200 μl for 4 days and plated for CFU counts after serial dilution in 7H9, pH 6.6.

[8] = test system: Enterococcus faecalis; assay: MIC determination (A600 after 24 hours); conditions: for MIC: Enterococcus faecalis
Method: as §1

[9] = Table 1, Compounds A1 to A294, read-out: Dlat IC50 category

**Q.** `O=C(O)c1cccc(N2C(=O)C(=Cc3ccc(-c4ccccc4Cl)o3)SC2=S)c1` (single isomer, unassigned) [Mycopyrin 5, 3-[5[[5-(2-chlorophenyl)-2-furanyl]methylene]-4-oxo-2-thioxo-3-thiazolidinyl]benzoic acid] was tested. Which “type of inhibition of Mtb's PDH” value [1] did it give?
**A.** time-dependent, substrate-independent inhibitor

**Q.** What about the MIC ([2]; pH 5.5, Staphylococcus aureus (brain heart infusion), pH 5.5) of the same compound?
**A.** 5 µM and 2.2 µg/mL

**Q.** What about the MIC ([2]; pH 5.5, Staphylococcus aureus (nutrient broth), pH 5.5) of the same compound?
**A.** 1 µM and 0.43 µg/mL

**Q.** And the MIC ([2]; pH 6.6, Staphylococcus aureus (brain heart infusion), pH 6.6)?
**A.** > 50 µM and > 22 µg/mL

**Q.** What about the MIC ([2]; pH 6.6, Staphylococcus aureus (nutrient broth), pH 6.6) of the same compound?
**A.** 2.5 µM and 1.1 µg/mL

**Q.** What about the “killing of Staphylococcus aureus” value ([2]; Table 22) of the same compound?
**A.** kills

**Q.** And the “inhibition of porcine PDH” value [3]?
**A.** does not inhibit

**Q.** What about the MIC ([4]; Escherichia coli, pH 5.5) of the same compound?
**A.** >50 μM and >22 μg/ml

**Q.** What about the MIC ([4]; Escherichia coli, pH 6.6) of the same compound?
**A.** >50 μM and >22 μg/ml

**Q.** What about the MIC ([4]; Pseudomonas aeruginosa, pH 5.5) of the same compound?
**A.** >50 μM and >22 μg/ml

**Q.** What about the MIC ([4]; Pseudomonas aeruginosa, pH 6.6) of the same compound?
**A.** >50 μM and >22 μg/ml

**Q.** And the IC50 ([5]; Dlat IC50 category, Table 1, Compounds A1 to A294)?
**A.** 11 to 40 µM

**Q.** And the “reversibility of DlaT inhibition” value ([5]; in presence of NADH, preincubation at room temperature, remaining activity over time, FIG. 3)?
**A.** irreversible inhibitor

**Q.** What about the “bactericidal activity to M. bovis BCG” value [6] of the same compound?
**A.** bactericidal

**Q.** What about the “bactericidal activity to Mycobacterium tuberculosis” value [7] of the same compound?
**A.** bactericidal

**Q.** What about the MIC ([8]; pH 5.5) of the same compound?
**A.** 5 µM and 2.2 µg/mL

**Q.** And the MIC ([8]; pH 6.6)?
**A.** > 50 µM and > 22 µg/mL

**Q.** What about the “killing of Enterococcus faecalis” value ([8]; Table 22) of the same compound?
**A.** kills

**Q.** For `CS(=O)(=O)c1ccc(-c2ccc(C=C3SC(=S)N(Nc4ccccc4C(=O)O)C3=O)o2)cc1` [Compound D50, 2-{5-[5-(4-methanesulfonyl-phenyl)-furan-2-ylmethylene]-4-oxo-2-thioxo-thiazolidin-3-ylamino}-benzoic acid], which IC50 ([5]; Dlat IC50 category) is on record?
**A.** < 10 µM

**Q.** How did the IC50 [5, 9] turn out when `CC(C)Oc1ccc(-c2ccc(C=C3SC(=S)N(c4cc(C(=O)O)ccc4F)C3=O)o2)cc1` [Compound A241] was run?
**A.** < 10 µM

**Q.** With `CC(C)(C)OC(=O)Nc1ccccc1-c1ccc(C=C2SC(=S)N(c3cccc(C(=O)O)c3)C2=O)o1` [Compound A157] as the compound, how does the IC50 [5, 9] read?
**A.** > 41 µM

**Q.** With `Cc1cc(C)c(-c2ccc(C=C3SC(=S)N(c4cc(C(=O)O)ccc4F)C3=O)o2)c(C)c1` [Compound A181] as the compound, how does the IC50 [5, 9] read?
**A.** < 10 µM

**Q.** With `CCCc1ccc(-c2ccc(C=C3SC(=S)N(c4ccc(F)c(C(=O)O)c4)C3=O)o2)cc1` [Compound A271] as the compound, how does the IC50 [5, 9] read?
**A.** < 10 µM

**Q.** Which IC50 ([5]; Dlat IC50 category) does the source give for `O=C(O)c1cccc(NN2C(=O)C(=Cc3ccc(-c4ccccc4Cl)o3)SC2=S)c1` [Compound D16, 3-{5-[1-[5-(2-chloro-phenyl)-furan-2-yl]-methylidene]-4-oxo-2-thioxo-thiazolidin-3-ylamino}-benzoic acid] here?
**A.** < 10 µM

**Q.** How did the IC50 [5, 9] turn out when `O=C(O)c1ccc(F)c(N2C(=O)C(=Cc3ccc(-c4ccc(Cl)c(Cl)c4)o3)SC2=S)c1` [Compound A105] was run?
**A.** < 10 µM

**Q.** Which IC50 [5, 9] does the source give for `O=C(O)c1cc(N2C(=O)C(=Cc3ccc(-c4ccccc4Cl)o3)SC2=S)ccc1Cl` [Compound A66] here?
**A.** < 10 µM

**Q.** Which IC50 ([5]; Dlat IC50 category) does the source give for `O=C(O)C(Cc1ccccc1)N1C(=O)C(=Cc2ccc(-c3cccc(C(F)(F)F)c3)o2)SC1=S` (centres unmarked) [Compound B40] here?
**A.** < 10 µM

**Q.** Which IC50 [5, 9] does the source give for `Cc1ccccc1-c1cccc(C=C2SC(=S)N(c3cc(C(=O)O)ccc3F)C2=O)c1` [Compound A174] here?
**A.** < 10 µM

**Q.** How did the IC50 ([5]; Dlat IC50 category) turn out when `O=C(O)C1CCC(N2C(=O)C(=Cc3ccc(-c4ccc(C(F)(F)F)cc4)o3)SC2=S)CC1` (centres unmarked) [Compound C55, 4-{4-oxo-2-thioxo-5-[1-[5-(4-trifluoromethyl-phenyl)-furan-2-yl]-methylidene]-thiazolidin-3-yl}-cyclohexanecarboxylic acid] was run?
**A.** 11 to 40 µM

**Q.** How did the IC50 [5, 9] turn out when `CSc1ccccc1-c1ccc(C=C2SC(=S)N(c3cccc(C(=O)O)c3)C2=O)o1` [Compound A185] was run?
**A.** < 10 µM

**Q.** How did the IC50 [5, 9] turn out when `CC(C)c1cccc(-c2ccc(C=C3SC(=S)N(c4cccc(O)c4)C3=O)o2)c1` [Compound A55] was run?
**A.** 11 to 40 µM

**Q.** With `Cc1ccccc1-c1ccc(C=C2SC(=S)N(C(C)C(=O)O)C2=O)o1` (centres unmarked) [Compound B97] as the compound, how does the IC50 ([5]; Dlat IC50 category) read?
**A.** 11 to 40 µM

From patent US8338465B2, “Cyclic carboxylic acid rhodanine derivatives for the treatment and prevention of tuberculosis” (priority 2006, dated 2012)
